From publication PMC12723470, “Heteromultivalent Nanogels as Highly Potent Inhibitors of Pseudomonas Aeruginosa” (Angewandte Chemie (International Ed. in English), 2025)

Tested on: 72 h mature P. aeruginosa biofilm
Assay: Mature biofilm eradication assay
Assay type: cell-based, Pseudomonas aeruginosa
Settings: 24 h treatment
Description: Inspired by the results of planktonic bactericidal experiments, we further evaluated the anti‐biofilm activity of the nanogels. […] This observation further reinforces our hypothesis that heteromultivalent nanogels with glyco‐residues and the BMAP‐18 peptide contribute to the long‐term eradication of P. aeruginosa. Further, a mature biofilm eradication assay was performed. […] More than 99.9% biofilm‐coated P. aeruginosa were inactivated (Figure 4a and S10). […] Overall, biofilm inhibition experiments with different control NG, NG‐Fuc/Gal and PNG‐Fuc/Gal reveal that PNG‐Fuc/‐Gal decomposes biofilm by a binding and killing mechanism. First, they bind with bacteria surface lectins via their specific sugar ligands and then inactivate using their surface BMAPs leading to a strong reduction in the biofilm matrix.
Figure 4 a) P. aeruginosa biofilm matrix visualization after 72 h of treatment with samples (red: biofilm matrix, scale bar = 20 µm), b) Biofilm coated‐ P. aeruginosa viability after 12 h treatment of samples. c) Mature P. aeruginosa biofilm visualization after 12 h of treatment with samples, and statistics for thickness and roughness (mean ± SD, n = 7), d) Mature P. aeruginosa biofilm visualization after 24 h of treatment with samples, and statistics for thickness and roughness (mean ± SD, n = 7). 0.01 <*p< […], 0.001 <**p < 0.01, ***p < 0.001, compared with Control group.

SMILES: NC[C@H]1O[C@H](O[C@H]2[C@H](O)[C@@H](O[C@H]3O[C@H](CO)[C@@H](O)[C@H](N)[C@H]3O)[C@H](N)C[C@@H]2N)[C@H](N)C[C@@H]1O [tobramycin]
- change of mature biofilm when treatment extended from 12 h to 24 h: did not show significant changes
